Experiments:
[1] = system: Rhizomucor miehei; experiment: Antimicrobial activity against Mucor miehei at 10 ug/disk by agar diffusion method; assay type: functional; details: read-out: IZ
[2] = Toxicity against Artemia salina assessed as mortality rate at 10 ug/mL after 24 hrs by small modified microtiter-plate method; assay type: organism-based; details: in vivo, read-out: Activity

SMILES | zone of inhibition at 10 µg/disc [1] [mm] | mortality at 24 h, 10 ug/mL [2] [%]
C/C1=C\[C@@H](C)C/C=C/[C@H]2[C@@H]3O[C@]3(C)[C@@H](C)[C@H]3[C@H](Cc4c[nH]c5ccccc45)NC(=O)[C@]32C(=O)/C=C/C(=O)[C@@H]1O [CHAETOGLOBOSIN A] | 25 | 83.4
C/C1=C\[C@@H](C)C/C=C/[C@H]2[C@@H]3O[C@]3(C)[C@@H](C)[C@H]3[C@H](Cc4c[nH]c5ccccc45)NC(=O)[C@]32C(=O)CCC(=O)C1=O [CHAETOGLOBOSIN C] | 15 | 75.3
C[C@H](/C=C/C1=CC2=C(Cl)C(=O)[C@@]3(C)O[C@]4(O)[C@H](C)[C@@H](C)OC(=O)[C@@H]4[C@H]3C2=CO1)[C@@H](C)O [CHAETOMUGILIN A] |  | 78.3
CC[C@H](C)/C=C/C1=CC2=C(Cl)C(=O)[C@@]3(C)O[C@]4(O)[C@H](C)[C@@H](C)OC(=O)[C@@H]4[C@H]3C2=CO1 [CHAETOMUGILIN D] |  | 75.2

From ChEMBL document CHEMBL1153329, “Bioactive metabolites produced by Chaetomium globosum, an endophytic fungus isolated from Ginkgo biloba” (Bioorg Med Chem Lett, 2009)
